# Measured values reported in patent US8946302B2, “Selective sigma-1 receptor ligands” (Wisconsin Alumni Research Foundation, priority 2008, dated 2015).
# Several values for one entry are separate records, joined by “and”; a condition that tells them apart may be missing. Identical values can stand only once. Like-named read-outs stand apart in the source and are kept apart here.
# Experiments:
# sigma-2 receptor = target: T1, sigma-2 receptor (Rattus norvegicus, UniProt Q5U3Y7); test: Sigma-2 competitive binding, [3H]-DTG with (+)-pentazocine, rat liver membranes (Example 6); parameters: from tissue; host or cells: rat liver membranes
# T1 sequence (Q5U3Y7 1-176): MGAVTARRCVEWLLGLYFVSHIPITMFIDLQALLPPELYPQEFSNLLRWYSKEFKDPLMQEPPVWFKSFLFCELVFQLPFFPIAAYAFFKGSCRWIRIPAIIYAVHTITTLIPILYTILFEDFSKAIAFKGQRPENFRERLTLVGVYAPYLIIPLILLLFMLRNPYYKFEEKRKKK
# Description: (§2) Minced frozen rat livers or guinea pig livers (65 g) were thawed in 100 mL homogenization buffer (10 mM phosphate buffer pH 7.4 containing 0.32M sucrose, 1 M MgSO4, 0.5 M EGTA, 1 mM phenylmethylsulphonyl fluoride (PMSF), 10 μg/mlleupeptin, 1 μg/ml pepstatin A, 10 μg/ml p-toluenesulfonyl-L-arginine methyl ester (TAME) and then homogenized on ice with a Brinkman polytron homogenizer (setting 6, 4 bursts of 10 second each) followed by a glass homogenizer (Teflon pestle by 6 slow passes at 3,000 rpm). The homogenized tissues were then centrifuged at 17,000 g for 10 minutes. The supernatants were re-centrifuged at 100,000 g for 1 hour. The microsomal pellets were resuspended in homogenization buffer, snap frozen with dry ice-ethanol, and stored at −80° C. at a final protein concentration of 20 mg/mL.
# (§3) Assays for sigma-1 were performed using 10 nM (+)-[^3H]pentazocine in guinea pig liver homogenates (25 μg/well) incubated at 30° C. for 1 hour with several concentrations of competing ligands. After incubation, membranes were harvested on a 0.5% PEI-treated Whatman GF/B filters using a Brandel Cell Harvester. (+)-[^3H]pentazocine binding was determined by liquid scintillation counting. […] Serial concentrations of the compounds evaluated were added to the reactions for 45 minutes at 30° C. and the samples vacuum filtered through 0.5% polyethyleneimine (PEI) treated Whatman GF/B as described above to measure displacement of the radioligands from the sigma receptor subtypes.
# sigma-1 receptor [1] = target: T2, sigma-1 receptor (Cavia porcellus, UniProt Q60492); test: Sigma-1 competitive binding, (+)-[3H]pentazocine, guinea pig liver membranes (Example 6); parameters: from tissue; host or cells: guinea pig liver membranes;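 further: compounds tested over serial concentrations, 45 min incubation at 30 °C with membrane preparations, read-out is displacement of bound radioligand from the receptor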
# Description: as §2, §3
# Du145 = test: Cytotoxicity assay Du145; assay type: cell-based; details: Homo sapiens, DU-145, HU Prostate, read-out: IC50 (SE) growth inhibition
# Description: (§1) Multi-plex cytotoxicity assays were performed by the Keck-UWCCC Small Molecule Screening Facility (Madison, Wis.). Specific methodology can be found online at http://hts.wisc.edu/Resources.htm#mpa.
# SF268 = test: Cytotoxicity assay SF268; assay type: cell-based; details: Homo sapiens, SF-268, HU CNS, read-out: IC50 (SE) growth inhibition
# Description: as §1
# HT-29 = test: Cytotoxicity assay HT-29; assay type: cell-based; details: Homo sapiens, HU Colorectal, read-out: IC50 (SE) growth inhibition
# Description: as §1
# SKOV-3 = test: Cytotoxicity assay SKOV-3; assay type: cell-based; details: Homo sapiens, SK-OV-3, HU Ovarian, read-out: IC50 (SE) growth inhibition
# Description: as §1
# MB-MDA-231 = test: Cytotoxicity assay MB-MDA-231; assay type: cell-based; details: Homo sapiens, HU Breast, read-out: IC50 (SE) growth inhibition
# Description: as §1
# HCT-45 = test: Cytotoxicity assay HCT-45; assay type: cell-based; details: Homo sapiens, HU Colorectal, read-out: IC50 (SE) growth inhibition
# Description: as §1
# HI299 = test: Cytotoxicity assay HI299; assay type: cell-based; details: Homo sapiens, HU Lung, read-out: IC50 (SE) growth inhibition
# Description: as §1
# A549 = test: Cytotoxicity assay A549; assay type: cell-based; details: Homo sapiens, HU lung, read-out: IC50 (SE) growth inhibition
# Description: as §1
# MCP10A = test: Cytotoxicity assay MCP10A; assay type: cell-based; details: Homo sapiens, HU Breast, read-out: IC50 (SE) growth inhibition
# Description: as §1
# MCF7 = test: Cytotoxicity assay MCF7; assay type: cell-based; details: Homo sapiens, HU Breast, read-out: IC50 (SE) growth inhibition
# Description: as §1
# NCI-H460 = test: Cytotoxicity assay NCI-H460; assay type: cell-based; details: Homo sapiens, HU lung, read-out: IC50 (SE) growth inhibition
# Description: as §1
# [2] = target: T3, purified sigma-1 receptor (Cavia porcellus, UniProt Q60492); test: Competitive displacement of [3H]-(+)-pentazocine at the pure sigma-1 receptor; assay type: binding, guinea pig; details: read-out: Ki Pure σ-1R
# T3 construct: made in house; host or cells: E. coli BL21 DE3
# Description: A guinea pig sigma-1 receptor was purified as previously described (Ramachandran et al., Protein Expr. Purif., 2007. 51(2): 283-92). The pMal P2X plasmid (New England Biolabs) encoding the guinea pig sigma-1 receptor on the C-terminus of the E. coli Maltose Binding Protein was used for purification. The sigma-1 receptor on its C-terminus carried a hexa-histadine epitope tag. Protein was expressed in the E. coli strain BL21 DE3 (Novagen) with 0.6 mM IPTG. The E. coli pellet was sonicated and centrifuged at 100,000 g for 1 hour to separate the particulate and soluble fractions. The particulate fraction was extracted with Triton X-100, centrifuged and the extract was loaded onto an amylose resin (New England Biolabs, E-802). After washing the resin with buffer containing 0.5% Triton X-100, the MBP-sigma-1 receptor fusion protein was eluted with buffer containing 10 mM maltose.
# The MBP-sigma-1-receptor fusion protein was cleaved with Factor Xa protease (Novagen) at room temperature for 24-48 hours and the cleavage was monitored with SDS-polyacrylamide gel electrophoresis. The sigma-1 receptor from the Factor Xa cleavage was purified with a HIS-Select HC Nickel affinity gel (Sigma-Aldrich P6611) in a batch format. The resin was washed with buffer containing 0.5% Triton X-100 detergent and the beads were separated by a brief centrifugation at 4000 rpm in a microcentrifuge. After washing to remove MBP, the pure sigma-1 receptor was eluted in buffer containing 250 mM imidazole.
# To remove the undigested MBP-sigma-1 receptor fusion protein that is carried over in the Ni^2+ purification, the eluate from the Ni^2+ purification was incubated with Anti-MBP antibody conjugated to agarose (Vector Laboratories, Burlingame, Calif.) at 4° C. for 18-24 hours. The beads were separated by centrifugation and the supernatant contained the pure sigma-1 receptor.
# Competition ligand binding to the pure sigma-1 receptor was performed as previously described. […] After incubation at 30° C. for 60 minutes, the reaction was terminated by rapid filtration through glass fiber filters (Whatman GF/B), using a Brandel cell harvester (Brandel, Gaithersburg, Md.). The glass fiber filters were pre-soaked in 0.5% polyethyleneimine (PEI) for at least 1 hour at room temperature (˜23° C.). Filters were washed 4 times with 4 mL of ice-cold 50 mM Tris-C1, pH 8.0. Radioactivity was quantified by liquid scintillation counting using a Packard model 1600 CA scintillation counter.
# σ-1 Sites = target: T4, σ-1 Sites (Cavia porcellus, UniProt Q60492); test: σ-1 sites radioligand binding, guinea pig liver membranes (Table 2); details: for Ki: guinea pig liver membranes; for σ-1 selectivity σ-2 Ki/σ-1 Ki: σ-2 rat liver / σ-1 guinea pig liver membranes
# T4 construct: from tissue
# Description: as §3
# σ-2 Sites = target: T5, σ-2 Sites (Rattus norvegicus, UniProt Q5U3Y7); test: σ-2 sites radioligand binding, rat liver membranes (Table 2)
# T5 construct: from tissue
# T5 sequence (Q5U3Y7 1-176): T1 sequence (Q5U3Y7 1-176)
# Description: as §3
# sigma-1 receptor [3] = target: T2, sigma-1 receptor; test: Affinity for the sigma-1 receptor (Table 3); assay type: binding; parameters: from tissue
# tumor cell lines = test: Cytotoxicity assays, various tumor cell lines (statements in words); assay type: cell-based, human
# Description: Because sigma-1 receptors are overexpressed in numerous tumor cell lines, which include breast cancer, lung carcinoma, renal carcinoma, colon carcinoma, sarcoma, brain tumors, melanoma, glioblastoma, neuroblastoma, and prostate cancer, the ability of the compounds to inhibit the growth of various tumor cell lines were tested.
# as §1
# [4] = rat liver membranes, n = 3, read-out: Sigma2 KD values
# [5] = guinea pig liver membranes, n = 3, read-out: Sigma 1 KD values
# T3 sequence (Q60492 whole entry): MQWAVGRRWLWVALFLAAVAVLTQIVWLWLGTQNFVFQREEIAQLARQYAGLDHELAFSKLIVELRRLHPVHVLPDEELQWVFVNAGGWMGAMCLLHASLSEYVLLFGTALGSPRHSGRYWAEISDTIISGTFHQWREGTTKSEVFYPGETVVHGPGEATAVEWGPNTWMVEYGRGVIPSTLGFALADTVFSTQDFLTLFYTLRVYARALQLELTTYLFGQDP
# T2 sequence (Q60492 whole entry): as above
# T4 sequence (Q60492 whole entry): as above
smiles,measurement,setting,value
CCCC[N+](CCCC)(CCCC)CCCC [Compound 3],Kd,sigma-2 receptor,268 µM
same,Kd,sigma-1 receptor [1],54.7 µM
same,Ratio (σ2/σ1),sigma-1 receptor [1],4.90
"CCCN(CCCc1ccc([N+](=O)[O-])cc1)CCc1ccc(N)cc1 [Compound 18, N-Propyl-N-4-aminophenylethyl-3-(4-nitrophenyl)propylamine]",IC50,Du145,> 100 µM
same,Kd,sigma-2 receptor; [4],0.0836 µM
same,IC50,SF268,> 100 µM
same,Ratio (σ2/σ1),sigma-1 receptor [1],13.93 ^
same,IC50,HT-29,> 100 µM
same,IC50,SKOV-3,> 100 µM
same,IC50,MB-MDA-231,> 100 µM
same,IC50,HCT-45,> 100 µM
same,IC50,HI299,> 100 µM
same,IC50,A549,> 100 µM
same,IC50,MCP10A,> 100 µM
same,IC50,MCF7,86.1 µM
same,IC50,NCI-H460,> 100 µM
"CCCCCCCCCCCCCCCCCCNCCCc1ccc([N+](=O)[O-])cc1 [Compound 1h, N-(3-(4-Nitrophenyl)propyl)octadecan-1-amine]",Ki,[2]; [3H]-(+)-pentazocine,0.0415 µM
same,Ki,σ-1 Sites,26.9 µM
same,σ-1 selectivity σ-2 Ki/σ-1 Ki,σ-1 Sites,0.3
same,Ki,σ-2 Sites,8.83 µM
"CCCCCCCCN(CCCCCCCC)CCCc1ccc(F)cc1 [Compound 8, N,N-Dioctyl-3-(4-fluorophenyl)propylamine]",Kd,sigma-2 receptor; [4],1.65 µM
same,Ratio (σ2/σ1),sigma-1 receptor [1],2.49
CCCNCCc1ccc(F)cc1 [Compound 9],Kd,sigma-2 receptor,0.23 µM
same,Kd,sigma-1 receptor [1],0.091 µM
same,Ratio (σ2/σ1),sigma-1 receptor [1],2.53
CCCCCCCCCCCCCCCCCCN [Stearylamine],Ki,[2]; [3H]-(+)-pentazocine 10 nM,8.5 µM and 8 µM
CCCCCCCCCCCCCCCCN [Hexadecylamine],Ki,[2]; [3H]-(+)-pentazocine 10 nM,2.7 µM and 3 µM
CCCCCCN [Hexylamine],Ki,[2]; [3H]-(+)-pentazocine 10 nM,37.5 µM and 37 µM
CCCCCCCCCCCCN [Dodecylamine],Ki,[2]; [3H]-(+)-pentazocine 10 nM,0.18 µM and 0.2 µM
CCCCN(CCCC)CCCC [Compound 6],Kd,sigma-2 receptor; [4],44.8 µM
same,Ratio (σ2/σ1),sigma-1 receptor [1],6.41
same,Kd,sigma-1 receptor [1]; [5],7 µM
CCCN(CCCc1ccc(F)cc1)Cc1ccc(N=[N+]=[N-])c(I)c1 [Compound 15],Ratio (σ2/σ1),sigma-1 receptor [1],570.8 ^
"CCCCNCCCc1ccc([N+](=O)[O-])cc1 [Compound 1b, N-(3-(4-Nitrophenyl)propyl)butan-1-amine]",Ki,[2]; [3H]-(+)-pentazocine,0.02 µM
same,Ki,σ-1 Sites,0.003 µM
same,σ-1 selectivity σ-2 Ki/σ-1 Ki,σ-1 Sites,7
same,Ki,σ-2 Sites,0.022 µM
CCCCCCCCN [Octylamine],Ki,[2]; [3H]-(+)-pentazocine 10 nM,5.6 µM and 6 µM
"CCCCNCc1ccc([N+](=O)[O-])cc1 [Compound 16, N-Butyl-N-4-nitrobenzylamine]",Kd,sigma-2 receptor; [4],1.68 µM
same,Ratio (σ2/σ1),sigma-1 receptor [1],1.4622
same,Kd,sigma-1 receptor [1]; [5],1.15 µM
"CCCCCCCCCCCCNCCCc1ccccc1 [Compound 1e, N-(3-Phenylpropyl)dodecan-1-amine]",Ki,[2]; [3H]-(+)-pentazocine,0.0632 µM
same,Ki,σ-1 Sites,5.3 µM
same,Ki,σ-2 Sites,2.1 µM
"CCCCCCCCCCCCNCCCc1ccc([N+](=O)[O-])cc1 [Compound 1f, N-(3-(4-Nitrophenyl)propyl)dodecan-1-amine]",Ki,[2]; [3H]-(+)-pentazocine,0.0318 µM
same,Kd,sigma-1 receptor [3]; read-out: Sigma-1 KD,0.00039 µM
same,Ki,σ-1 Sites,5.17 µM
same,Ki,σ-2 Sites,2.38 µM
same,cytotoxicity / tumor cell growth inhibition,tumor cell lines,remarkable activity for inhibiting tumor growth
"CCCN(CCC)CCc1c[nH]c2ccccc12 [DPT, reference compound]",Kd,sigma-1 receptor [3],1.6 µM
"CCCCCCCNCCCc1ccc([N+](=O)[O-])cc1 [Compound 1d, N-(3-(4-Nitrophenyl)propyl)heptane-1-amine]",Ki,[2]; [3H]-(+)-pentazocine,0.0075 ± 0.0012 µM
same,Kd,sigma-1 receptor [3]; read-out: Sigma-1 KD,0.0057 µM
same,Ki,σ-1 Sites,0.01 µM
same,σ-1 selectivity σ-2 Ki/σ-1 Ki,σ-1 Sites,1
same,Ki,σ-2 Sites,0.011 µM
same,cytotoxicity / tumor cell growth inhibition,tumor cell lines,remarkable activity for inhibiting tumor growth
NCCCc1ccccc1 [Compound 2],Kd,sigma-2 receptor; [4],270 µM
same,Ratio (σ2/σ1),sigma-1 receptor [1],3.92
same,Kd,sigma-1 receptor [1]; [5],68.9 µM
"CCCN(Cc1ccc([N+](=O)[O-])cc1)C(=O)CCc1ccc(F)cc1 [Compound 13, N-Propyl-N-(4-nitro-benzyl)-3-(4-fluorophenyl)propionamide]",Kd,sigma-2 receptor; [4],236 µM
CCCN(CCCc1ccc(F)cc1)CCc1ccc(N=[N+]=[N-])c(I)c1 [HD5],cytotoxicity / tumor cell growth inhibition,tumor cell lines,potent cell growth inhibitor of both MB-MDA-231 and MCF7
CCCCCCCCCCCCNCCCc1ccccc1 [UC3],Kd,sigma-1 receptor [3]; read-out: Sigma-1 KD,0.092 µM
CCCCN(CCCC)CCCc1ccc([N+](=O)[O-])cc1 [HD2],Kd,sigma-1 receptor [3]; read-out: Sigma-1 KD,0.00036 µM
"CCCCCCCCCCCCCCCCCCNCCCc1ccccc1 [Compound 1g, N-(3-Phenylpropyl)octadecan-1-amine]",Ki,[2]; [3H]-(+)-pentazocine,0.0422 µM
same,Ki,σ-1 Sites,34.4 µM
same,σ-1 selectivity σ-2 Ki/σ-1 Ki,σ-1 Sites,0.7
same,Ki,σ-2 Sites,19.9 µM
CCCNCCc1ccc(F)cc1 [HD7],Kd,sigma-1 receptor [3],0.091 µM
CCCCCCCNCCCc1ccccc1 [UC1],Kd,sigma-1 receptor [3]; read-out: Sigma-1 KD,0.012 µM
CN(C)CCc1c[nH]c2ccccc12 [Compound 1],Kd,sigma-1 receptor [1]; [5],> 50000 µM
CCCCN(CCCC)CCCc1ccc(F)cc1 [HD1],Kd,sigma-1 receptor [3]; read-out: Sigma-1 KD,0.0177 µM
"CCCN(CCCc1ccc(F)cc1)Cc1ccc(N)c(I)c1 [Compound 14, N-Propyl-N-(4-amino-3-iodo-benzyl)-3-(4-fluorophenyl)propylamine]",Kd,sigma-2 receptor; [4],133 µM
same,Ratio (σ2/σ1),sigma-1 receptor [1],0.3389
same,Kd,sigma-1 receptor [1]; [5],393 µM
CCCCCN [Amylamine],Ki,[2]; [3H]-(+)-pentazocine 10 nM,167 ± 35.2 µM
CCCN(CCCc1ccc([N+](=O)[O-])cc1)CCc1ccc(N)cc1 [HD4],Kd,sigma-1 receptor [3]; read-out: Sigma-1 KD,0.006 µM
